From US8883826B2, “Alkynyl derivatives as modulators of metabotropic glutamate receptors” (Addex Pharma SA, priority 2004, dated 2014)

Molecular target: T1, mGluR5 (Rattus norvegicus, UniProt P31424)
T1 construct: tissue Charles River Laboratories; host or cells: rat brain cortex membranes (Sprague-Dawley)
Assay: mGluR5 binding assay ([3H]-MPEP radioligand competition)
Conditions: competition with 3 nM [3H]-MPEP, rat brain cortical membranes, 1 h at 4 °C; mean of at least three independent experiments in duplicate
Text: Activity of compounds of the invention was examined following a radioligand binding technique using whole rat brain and tritiated 2-methyl-6-(phenylethynyl)-pyridine ([^3H]-MPEP) as a ligand following similar methods than those described in F. Gasparini et al. Bioorg. Med. Chem. Lett. 2002, 12, 407-409 and in J. F. Anderson et al. J. Pharmacol. Exp. Ther. 2002, 303, 3, 1044-1051.
Cortices were dissected out from brains of 200-300 g Sprague-Dawley rats (Charles River Laboratories, L'Arbresle, France). Tissues were homogenized in 10 volumes (vol/wt) of ice-cold 50 mM Hepes-NaOH (pH 7.4) using a Polytron disrupter (Kinematica AG, Luzern, Switzerland) and centrifuged for 30 min at 40,000 g. (4° C.). The supernatant was discarded and the pellet washed twice by resuspension in 10 volumes 50 mM HEPES-NaOH. Membranes were then collected by centrifugation and washed before final resuspension in 10 volumes of 20 mM HEPES-NaOH, pH 7.4. Protein concentration was determined by the Bradford method (Bio-Rad protein assay, Reinach, Switzerland) with bovine serum albumin as standard.
[^3H]-MPEP Binding Experiments:
Membranes were thawed and resuspended in binding buffer containing 20 mM HEPES-NaOH, 3 mM MgCl2, 3 mM CaCl2, 100 mM NaCl, pH 7.4. Competition studies were carried out by incubating for 1 h at 4° C.: 3 nM [^3H]-MPEP (39 Ci/mmol, Tocris, Cookson Ltd, Bristol, U.K.), 50 μg membrane and a concentration range of 0.003 nM-30 μM of compounds, for a total reaction volume of 300 μl. The non-specific binding was defined using 30 μM MPEP. Reaction was terminated by rapid filtration over glass-fiber filter plates (Unifilter 96-well GF/B filter plates, Perkin-Elmer, Schwerzenbach, Switzerland) using 4×400 μl ice cold buffer using cell harvester (Filtermate, Perkin-Elmer, Downers Grove, USA). Radioactivity was determined by liquid scintillation spectrometry using a 96-well plate reader (TopCount, Perkin-Elmer, Downers Grove, USA).
The inhibition curves were generated using the Prism GraphPad program (Graph Pad Software Inc, San Diego, USA). IC50 determinations were made from data obtained from 8 point-concentration response curves using a non linear regression analysis.
The table below represents the mean of IC50 obtained from at least three independent experiments of selected molecules performed in duplicate.

T1 sequence (P31424 21-1203): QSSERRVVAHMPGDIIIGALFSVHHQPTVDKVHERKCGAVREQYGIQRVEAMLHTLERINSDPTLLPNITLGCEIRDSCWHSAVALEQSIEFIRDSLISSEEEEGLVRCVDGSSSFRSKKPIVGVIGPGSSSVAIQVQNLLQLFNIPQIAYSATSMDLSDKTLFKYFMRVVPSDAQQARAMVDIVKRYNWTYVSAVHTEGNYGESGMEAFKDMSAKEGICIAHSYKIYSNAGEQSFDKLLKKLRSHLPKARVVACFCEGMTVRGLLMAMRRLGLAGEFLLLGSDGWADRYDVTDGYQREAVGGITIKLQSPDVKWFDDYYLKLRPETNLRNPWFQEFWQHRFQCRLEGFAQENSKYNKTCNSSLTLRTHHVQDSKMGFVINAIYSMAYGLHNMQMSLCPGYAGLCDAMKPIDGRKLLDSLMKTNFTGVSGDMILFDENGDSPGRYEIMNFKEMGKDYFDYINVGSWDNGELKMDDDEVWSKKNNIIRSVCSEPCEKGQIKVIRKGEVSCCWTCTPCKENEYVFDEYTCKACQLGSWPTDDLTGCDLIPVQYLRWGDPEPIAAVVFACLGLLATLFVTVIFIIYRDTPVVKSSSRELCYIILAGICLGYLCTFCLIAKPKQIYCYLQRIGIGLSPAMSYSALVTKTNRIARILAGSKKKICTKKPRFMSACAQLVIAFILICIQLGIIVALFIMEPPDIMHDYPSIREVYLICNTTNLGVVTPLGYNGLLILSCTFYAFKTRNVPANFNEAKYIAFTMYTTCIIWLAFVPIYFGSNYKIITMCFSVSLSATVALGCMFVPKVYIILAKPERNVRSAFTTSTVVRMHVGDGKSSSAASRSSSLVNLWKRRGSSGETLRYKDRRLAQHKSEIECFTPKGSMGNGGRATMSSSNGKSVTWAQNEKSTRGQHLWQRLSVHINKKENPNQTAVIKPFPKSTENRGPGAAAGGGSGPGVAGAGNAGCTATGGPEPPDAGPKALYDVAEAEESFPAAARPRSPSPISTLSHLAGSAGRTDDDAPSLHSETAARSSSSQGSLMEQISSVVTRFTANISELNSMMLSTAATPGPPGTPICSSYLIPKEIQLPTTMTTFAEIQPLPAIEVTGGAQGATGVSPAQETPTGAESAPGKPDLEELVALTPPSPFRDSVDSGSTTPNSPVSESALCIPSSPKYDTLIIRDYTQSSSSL

| SMILES | IC50 [µM] |
| --- | --- |
| C(#Cc1ccccn1)CCc1ncc(-c2ccccc2)o1 [Example 65, 2-(4-(5-Phenyloxazol-2-yl)but-1-ynyl)pyridine] | < 0.05 |
| Cc1c(Cl)cccc1-c1noc(CCC#Cc2ccccn2)n1 [Example 66, 2-(4-(3-(3-Chloro-2-methylphenyl)-1,2,4-oxadiazol-5-yl)but-1-ynyl)pyridine] | < 0.5 |
| Cc1cccn2cc(CCC#Cc3ccccn3)nc12 [Example 67, 8-Methyl-2-(4-(pyridin-2-yl)but-3-ynyl)-imidazo[1,2-a]pyridine] | < 10 |
| C(#Cc1ccccn1)CCc1cn2c(-c3ccccc3)cccc2n1 [Example 69, 5-Phenyl-2-(4-(pyridin-2-yl)but-3-ynyl)-imidazo[1,2-a]pyridine] | < 0.05 |
| Fc1ccc(C#CCCc2nc3ccccc3o2)nc1 [Example 71, 2-(4-(5-Fluoropyridin-2-yl)but-3-ynyl)benzo[d]oxazole] | < 10 |
| Cc1nc(C#CCCc2cn3ccccc3n2)cs1 [Example 73, 2-(4-(2-Methylthiazol-4-yl)but-3-ynyl)imidazo[1,2-a]pyridine] | < 10 |
| Fc1ccc2nc(CCC#Cc3ccccn3)cn2c1 [Example 74, 6-Fluoro-2-(4-(pyridin-2-yl)but-3-ynyl)-imidazo[1,2-a]pyridine] | < 10 |
| C(#Cc1ccccn1)CCc1nc2cccnc2o1 [Example 76, 2-(4-(Pyridin-2-yl)but-3-ynyl)oxazolo[5,4-b]pyridine] | < 10 |
| N#Cc1ccc2oc(CCC#Cc3ccccn3)nc2c1 [Example 79, 2-(4-(Pyridin-2-yl)but-3-ynyl)benzo[d]oxazole-5-carbonitrile] | < 10 |
| Cc1nc(C#CCCc2nc3cc(F)cc(Cl)c3o2)cs1 [Example 80, 7-Chloro-5-fluoro-2-(4-(2-methylthiazol-4-yl)but-3-ynyl)benzo[d]oxazole] | < 0.05 |
| FC(F)(F)c1cccc2nc(CCC#Cc3ccccn3)oc12 [Example 81, 7-(Trifluoromethyl)-2-(4-(pyridin-2-yl)but-3-ynyl)benzo[d]oxazole] | < 0.05 |
| Fc1cc(-c2ccccc2)c2oc(CCC#Cc3ccccn3)nc2c1 [Example 83, 5-Fluoro-7-phenyl-2-(4-(pyridin-2-yl)but-3-ynyl)benzo[d]oxazole] | < 10 |
| Clc1nccc(C#CCCc2nc3ccccc3o2)n1 [Example 84, 2-(4-(2-Chloropyrimidin-4-yl)but-3-ynyl)benzo[d]oxazole] | < 10 |
| Brc1cccc2oc(CCC#Cc3ccccn3)nc12 [Example 86, 4-Bromo-2-(4-(pyridin-2-yl)but-3-ynyl)benzo[d]oxazole] | < 0.05 |

The remaining lines, values ahead:

| IC50 [µM] | SMILES |
| --- | --- |
| < 0.05 | Fc1cccc2nc(CCC#Cc3ccccn3)oc12 [Example 64, 7-Fluoro-2-(4-(pyridin-2-yl)but-3-ynyl)benzo[d]oxazole] |
| < 10 | Cc1cccc2nc(CCC#Cc3ccccn3)cn12 [Example 68, 5-Methyl-2-(4-(pyridin-2-yl)but-3-ynyl)-imidazo[1,2-a]pyridine] |
| < 10 | Oc1cccc2oc(CCC#Cc3ccccn3)nc12 [Example 70, 2-(4-(Pyridin-2-yl)but-3-ynyl)benzo[d]oxazol-4-ol] |
| < 10 | COc1cccc2oc(CCC#Cc3ccccn3)nc12 [Example 72, 4-Methoxy-2-(4-(pyridin-2-yl)but-3-ynyl)benzo[d]oxazole] |
| < 10 | Fc1ccc(C#CCCc2cn3ccccc3n2)nc1 [Example 75, 2-(4-(5-Fluoropyridin-2-yl)but-3-ynyl)-imidazo[1,2-a]pyridine] |
| < 0.05 | Fc1cc(Cl)c2oc(CCC#Cc3ccccn3)nc2c1 [Example 77, 7-Chloro-5-fluoro-2-(4-(pyridin-2-yl)but-3-ynyl)benzo[d]oxazole] |
| < 10 | C(#Cc1ccccn1)CCc1nc2ncccc2o1 [Example 78, 2-(4-(Pyridin-2-yl)but-3-ynyl)oxazolo[4,5-b]pyridine] |
| < 0.05 | Fc1cc(Br)c2oc(CCC#Cc3ccccn3)nc2c1 [Example 82, 7-Bromo-5-fluoro-2-(4-(pyridin-2-yl)but-3-ynyl)benzo[d]oxazole] |
